Values joined by “and” are separate entries in the source; they are usually repeats but may differ in a detail not shown here. Identical values can stand only once. Toxic doses and inconclusive results are not listed.
System: L1210 leukemia ip in BDF1 mice, survival T/C
Test: NCI In Vivo Anticancer Drug Screen. Data for tumor model L1210 Leukemia (intraperitoneal) in B6D2F1 (BDF1) mice
Settings: endpoint: mean survival time, higher = longer survival
How it was run: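 Each compound was tested against a transplantable tumor grown in mice. The endpoint was survival, with treated animals benchmarked against vehicle controls as a simple ratio.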

[1] = dose: 100.0 mg/kg/injection, schedule: Q01DX009 (ip), vehicle: Klucel (hydroxypropylcellulose) (HPC)
[2] = dose: 100.0 mg/kg/injection, schedule: Q04DX003 (ip), vehicle: Klucel (hydroxypropylcellulose) (HPC)
[3] = dose: 200.0 mg/kg/injection, schedule: Q01DX009 (ip), vehicle: Klucel (hydroxypropylcellulose) (HPC)
[4] = dose: 200.0 mg/kg/injection, schedule: Q04DX003 (ip), vehicle: Klucel (hydroxypropylcellulose) (HPC)
[5] = dose: 400.0 mg/kg/injection, schedule: Q04DX003 (ip), vehicle: Klucel (hydroxypropylcellulose) (HPC)
[6] = dose: 100.0 mg/kg/injection, schedule: Q04DX002 (ip), vehicle: Klucel (hydroxypropylcellulose) (HPC)
[7] = dose: 200.0 mg/kg/injection, schedule: Q04DX002 (ip), vehicle: Klucel (hydroxypropylcellulose) (HPC)
[8] = dose: 400.0 mg/kg/injection, schedule: Q04DX002 (ip), vehicle: Klucel (hydroxypropylcellulose) (HPC)
[9] = dose: 6.25 mg/kg/injection, schedule: Q01DX009 (ip), vehicle: Klucel (hydroxypropylcellulose) (HPC)
[10] = dose: 12.5 mg/kg/injection, schedule: Q01DX009 (ip), vehicle: Klucel (hydroxypropylcellulose) (HPC)
[11] = dose: 25.0 mg/kg/injection, schedule: Q01DX009 (ip), vehicle: Klucel (hydroxypropylcellulose) (HPC)
[12] = dose: 25.0 mg/kg/injection, schedule: Q04DX003 (ip), vehicle: Klucel (hydroxypropylcellulose) (HPC)
[13] = dose: 50.0 mg/kg/injection, schedule: Q01DX001 (ip), vehicle: saline
[14] = dose: 100.0 mg/kg/injection, schedule: Q01DX001 (ip), vehicle: saline
[15] = dose: 200.0 mg/kg/injection, schedule: Q01DX001 (ip), vehicle: saline
[16] = dose: 400.0 mg/kg/injection, schedule: Q01DX001 (ip), vehicle: saline
[17] = dose: 100.0 mg/kg/injection, schedule: Q04DX003 (ip), vehicle: saline
[18] = dose: 200.0 mg/kg/injection, schedule: Q04DX003 (ip), vehicle: saline
[19] = dose: 100.0 mg/kg/injection, schedule: Q01DX001 (ip), vehicle: Klucel (hydroxypropylcellulose) (HPC)

In the case of `SCC1SCCCS1`, the T/C (dose: 12.5 mg/kg/injection, schedule: Q04DX002 (ip), vehicle: saline with Tween-80) is reported as 97 % of control, the T/C (dose: 25.0 mg/kg/injection, schedule: Q04DX002 (ip), vehicle: saline with Tween-80) is reported as 113 % of control and the T/C (dose: 50.0 mg/kg/injection, schedule: Q04DX002 (ip), vehicle: saline with Tween-80) is reported as 97 % of control.
In the case of `Cc1c(Cl)cccc1NC(=O)Nc1ccccc1Cl`, the T/C [1] is reported as 104 % of control, the T/C [2] is reported as 92 % of control and the T/C [3] is reported as 103 % of control. For the same compound, the T/C [4] was 91 % of control, the T/C (dose: 400.0 mg/kg/injection, schedule: Q01DX009 (ip), vehicle: Klucel (hydroxypropylcellulose) (HPC)) was 100 % of control and the T/C [5] was 92 % of control.
For `CC(C#N)CC12CCCCC1CC/C(=C\c1ccccc1)C2` (stereo not drawn), the T/C [2] was 92 % of control, the T/C [4] was 94 % of control and the T/C [5] was 94 % of control.
`O=C(Nc1cccc(Cl)c1)c1cc(N=Nc2ccc([N+](=O)[O-])cc2Cl)ccc1O` was tested, and the T/C [2] was 103 % of control and the T/C [4] was 104 % of control.
`c1ccc(-c2c[nH]c(-c3ccccc3)c2)cc1` was tested, and the T/C [2] was 124 % of control, the T/C (dose: 200.0 mg/kg/injection, schedule: Q01DX001 (ip), vehicle: steriod suspending solution) was 103 % of control and the T/C [4] was 100 % of control. The T/C (dose: 400.0 mg/kg/injection, schedule: Q01DX001 (ip), vehicle: steriod suspending solution) was 103 % of control and the T/C [5] was 94 % of control.
In the case of `COC(=O)c1ccccc1NC(=O)N(c1ccccc1)c1ccccc1`, the T/C [6] is reported as 93 % of control, the T/C [7] is reported as 97 % of control and the T/C [8] is reported as 101 % of control.
With `CC(C)(C)C1CCCC(NC(=O)N(CCCl)N=O)C1` (stereo not drawn) the T/C (dose: 6.0 mg/kg/injection, schedule: Q01DX001 (ip), vehicle: other) was 111 % of control, the T/C (dose: 12.0 mg/kg/injection, schedule: Q01DX001 (ip), vehicle: other) was 108 % of control and the T/C (dose: 46.0 mg/kg/injection, schedule: Q01DX001 (ip), vehicle: other) was 153 % of control. For the same compound, the T/C (dose: 93.0 mg/kg/injection, schedule: Q01DX001 (ip), vehicle: other) was 187 % of control, the T/C (dose: 187.0 mg/kg/injection, schedule: Q01DX001 (ip), vehicle: other) was 238 % of control and the T/C (dose: 250.0 mg/kg/injection, schedule: Q01DX001 (ip), vehicle: other) was 218 % of control. The T/C (dose: 375.0 mg/kg/injection, schedule: Q01DX001 (ip), vehicle: other) was 164 % of control and the T/C (dose: 500.0 mg/kg/injection, schedule: Q01DX001 (ip), vehicle: other) was 118 % of control.
For `NC(=O)Oc1ccccc1Cl`, the T/C (dose: 75.0 mg/kg/injection, schedule: Q04DX003 (ip), vehicle: Klucel (hydroxypropylcellulose) (HPC)) was 104 % of control, the T/C (dose: 150.0 mg/kg/injection, schedule: Q04DX003 (ip), vehicle: Klucel (hydroxypropylcellulose) (HPC)) was 100 % of control and the T/C (dose: 300.0 mg/kg/injection, schedule: Q04DX003 (ip), vehicle: Klucel (hydroxypropylcellulose) (HPC)) was 105 % of control.
With `CCC(CCN(CC=C(C)C)CC=C(C)C)(C(N)=O)c1cccc2ccccc12` (stereo not drawn) the T/C [9] was 96 % of control, the T/C (dose: 6.25 mg/kg/injection, schedule: Q04DX003 (ip), vehicle: Klucel (hydroxypropylcellulose) (HPC)) was 107 % of control and the T/C [10] was 101 % of control. For the same compound, the T/C (dose: 12.5 mg/kg/injection, schedule: Q04DX003 (ip), vehicle: Klucel (hydroxypropylcellulose) (HPC)) was 100 % of control, the T/C [11] was 96 % of control and the T/C [12] was 102 % of control.
In the case of `COC(=O)c1ccccc1N(C)C(=O)c1ccccc1`, the T/C [2] is reported as 102 % of control, the T/C [4] is reported as 107 % of control and the T/C [5] is reported as 109 % of control.
`NC(=O)CSc1cc(Cl)c(Cl)cc1Cl` was tested, and the T/C (dose: 50.0 mg/kg/injection, schedule: Q04DX003 (ip), vehicle: saline with Tween-80) was 103 % of control, the T/C (dose: 100.0 mg/kg/injection, schedule: Q04DX003 (ip), vehicle: saline with Tween-80) was 106 % of control and the T/C (dose: 200.0 mg/kg/injection, schedule: Q04DX003 (ip), vehicle: saline with Tween-80) was 90 % of control.
With `CNC(=O)Nc1ccc(C(=O)O)cc1` the T/C [6] was 102 % of control, the T/C [7] was 95 % of control and the T/C [8] was 95 % of control.
For `O=Cc1nccc2c1[nH]c1ccccc12`, the T/C (dose: 25.0 mg/kg/injection, schedule: Q01DX009 (ip), vehicle: saline with Tween-80) was 96 % of control, the T/C (dose: 50.0 mg/kg/injection, schedule: Q01DX009 (ip), vehicle: saline with Tween-80) was 97 % of control and the T/C (dose: 100.0 mg/kg/injection, schedule: Q01DX009 (ip), vehicle: saline with Tween-80) was 86 % of control and 90 % of control.
For `O=[N+]([O-])c1cccc(Cl)c1/C=N/Nc1nnc(N/N=C/c2c(Cl)cccc2[N+](=O)[O-])c2ccccc12`, the T/C [13] was 96 % of control, the T/C [14] was 96 % of control and the T/C [15] was 98 % of control. For the same compound, the T/C [16] was 98 % of control.
In the case of `CCC(C)C(NC(=O)C1CSC(C)(C)N1C=O)C(=O)OC` (stereo not drawn), the T/C [17] is reported as 106 % of control, the T/C [18] is reported as 97 % of control and the T/C (dose: 400.0 mg/kg/injection, schedule: Q04DX003 (ip), vehicle: saline) is reported as 103 % of control.
In the case of `CC(C)(C)OC(=O)NCC(=O)O`, the T/C (dose: 50.0 mg/kg/injection, schedule: Q01DX009 (ip), vehicle: saline) is reported as 93 % of control, the T/C (dose: 75.0 mg/kg/injection, schedule: Q01DX001 (ip), vehicle: acetone) is reported as 93 % of control and the T/C (dose: 100.0 mg/kg/injection, schedule: Q01DX009 (ip), vehicle: saline) is reported as 96 % of control. For the same compound, the T/C [17] was 97 % of control, the T/C (dose: 150.0 mg/kg/injection, schedule: Q01DX001 (ip), vehicle: acetone) was 99 % of control and the T/C (dose: 200.0 mg/kg/injection, schedule: Q01DX009 (ip), vehicle: saline) was 93 % of control. For the same compound, the T/C [18] was 106 % of control and the T/C (dose: 300.0 mg/kg/injection, schedule: Q01DX001 (ip), vehicle: acetone) was 103 % of control.
In the case of `CC1(C)C2CC=C(CCOC(=O)COc3cc(Cl)c(Cl)cc3Cl)C1C2` (stereo not drawn), the T/C (dose: 160.0 mg/kg/injection, schedule: Q01DX Z (ip), vehicle: other) is reported as 105 % of control, the T/C (dose: 240.0 mg/kg/injection, schedule: Q01DX Z (ip), vehicle: other) is reported as 109 % of control and the T/C (dose: 350.0 mg/kg/injection, schedule: Q01DX Z (ip), vehicle: other) is reported as 88 % of control.
`Cc1ccc(C(=O)N/N=C/c2ccccc2Cl)cc1` was tested, and the T/C [6] was 101 % of control, the T/C [7] was 93 % of control and the T/C [8] was 104 % of control.
In the case of `C=Cc1cnc(NC(C)=O)c(C#N)n1`, the T/C [19] is reported as 103 % of control and the T/C (dose: 200.0 mg/kg/injection, schedule: Q01DX001 (ip), vehicle: Klucel (hydroxypropylcellulose) (HPC)) is reported as 100 % of control.
In the case of `CCN(CC)C(=O)C1CN2CCc3cc(OC)c(OC)cc3C2CC1OC(C)=O` (stereo not drawn), the T/C [9] is reported as 94 % of control, the T/C [10] is reported as 97 % of control and the T/C (dose: 25.0 mg/kg/injection, schedule: Q01DX001 (ip), vehicle: water) is reported as 92 % of control. For the same compound, the T/C [11] was 94 % of control, the T/C [12] was 103 % of control and the T/C (dose: 50.0 mg/kg/injection, schedule: Q01DX001 (ip), vehicle: water) was 111 % of control. The T/C (dose: 50.0 mg/kg/injection, schedule: Q01DX009 (ip), vehicle: Klucel (hydroxypropylcellulose) (HPC)) was 103 % of control, the T/C (dose: 50.0 mg/kg/injection, schedule: Q04DX003 (ip), vehicle: Klucel (hydroxypropylcellulose) (HPC)) was 100 % of control and the T/C (dose: 100.0 mg/kg/injection, schedule: Q01DX001 (ip), vehicle: water) was 97 % of control. For the same compound, the T/C [1] was 103 % of control, the T/C [2] was 97 % of control and the T/C [3] was 115 % of control.
For `O=[N+]([O-])c1ccc2nncn2c1`, the T/C [13] was 91 % of control, the T/C [14] was 97 % of control and the T/C [15] was 103 % of control. The T/C [16] was 101 % of control.
For `CCCCCCCCCCCCCCCCCC[N+]1(Cc2ccccc2)CCOCC1`, the T/C [19] was 110 % of control.
With `O=C1C=C(N2CCCC2)CCC1` the T/C (dose: 75.0 mg/kg/injection, schedule: Q01DX001 (ip), vehicle: saline) was 107 % of control and the T/C (dose: 150.0 mg/kg/injection, schedule: Q01DX001 (ip), vehicle: saline) was 109 % of control.

Source: PubChem BioAssay AID248 (DTP/NCI, 2004)
